Experimental data: patent publication US8617528B2, “Compositions and methods for stabilizing ingredients using 2,4-pentanedione compounds” (Sytheon Ltd., priority 2010, dated 2013)

What was measured:
[1] = Photostabilization of avobenzone in ethanol test solution under sun simulator
Experimental: A comparative photostabilization study was conducted comparing the photostabilization efficacy of the compound of Example 1, HSS, and the compound of Example 3 (Compound 3) with Octocrylene and Oxynex® ST in the stabilization of avobenzone. Samples for evaluation were prepared as follows:
Solutions in ethanol are prepared at respective concentrations of photosensitive materials and photostabilizer (typically 1:1 to 1:5 weight ratio). A base test solution of 3% Avobenzone+5% Octyl salicylate +10% Homoslate in Ethanol (the “Test Solution”) was made. Seven additional solutions were prepared by adding 2% Synoxyl™ HSS, 4% Synoxyl™ HSS, 4% Compound 3, 2% Octocrylene, 4% Octocrylene, 2% Oxynex® ST, and 2% dehydrozingerone methyl ether, respectively, to seven aliquots of the Test Solution.
(§1) Samples of each solution were prepared as ultrathin films between two quartz plates so as to obtain a minimum of 90% light transmission over the entire spectrum range of non absorbing chromophores. For example, ingredients which absorb only in the UV range were tested in formulation to obtain a minimum of 90% light transmission over the visible range. Each sample was then irradiated under sun simulator (754 W/m^2, 2 MED/h, UV dose from 20 to 100 Joules/cm^2) for various durations and light absorption spectra recorded for each sample at given times. The maximal absorption band λmax of each solution was determined before and after irradiation. The amount of the photosensitive materials remaining in solution after irradiation was calculated as the ratio of their two maximal absorptions.

[2] = solar simulator, total energy 100 mJ/cm^2; cited from earlier work
[3] = Hydrolytic stability of HSS in water at pH 7, 8, 9 (GC purity of recovered solid); assay type: physicochemical
Experimental: A series of hydrolytic stability tests were conducted on the compound of Example 1, HSS, as follows
pH7: 2.5 g of samples of HSS were placed in 100 ml round bottom flasks and 50 ml of double distilled water (pH 7) added to each. […] Thereafter each sample was filtered and the solids dried.
pH 8: 2.5 g of samples of HSS were placed in 100 ml round bottom flasks and 50 ml of double distilled water which had been adjusted to pH 8 using 0.01N NaOH solution added to each. […] Thereafter each sample was filtered and the solids dried.
pH 9: 2.5 g of samples of HSS were placed in 100 ml round bottom flasks and 50 ml of double distilled water which had been adjusted to pH 9 using 0.1N NaOH solution added to each. […] Thereafter each sample was filtered and the solids dried.
Each dried sample was analyzed by gas chromatography using an HP-5, 15 m, 0.53 mm id, capillary column with following set-up and test parameters: • Injection temperature: 250° C. • Oven temp: 50° C. (2 min), 10° C. to 260° C. (20 min) • Detector: FID • Detector temp: 260° C. • Carrier gas: Nitrogen • Column flow: 3.0 ml/min • Split ratio: 5:1 • Injection Volume: 1 micro liter • Sample concentration: 100 mg/ml in Methanol
The initial purity of the HSS used to make Samples A through F was 98.9% as determined by the aforementioned GC procedure.

[4] = Stability of HSS in the presence of iron and copper ions (UV absorbance at 319 nm); assay type: physicochemical; details: acetate buffer pH 6.5/ethanol, room temperature
Experimental: A base buffer solution was prepared by dissolving 13.608 g of sodium acetate in 1000 ml water and then adjusting the pH to 6.5 with acetic acid to form a 0.1 M acetate solution and then combining 75 parts by weight of this solution with 25 parts by weight ethanol.
A copper sulfate solution was prepared by dissolving 24.968 mg of copper sulfate (CuSO4.5H2O) in 100 ml of the base buffer solution.
A ferric sulfate solution was prepared by dissolving 16.22 mg of […] in 100 ml of the base buffer solution.
Finally a 100 μM test solution of HSS was prepared by dissolving 27.8 mg of HSS in 10 ml of the base buffer solution and then diluting 0.1 ml of this solution to 10 ml with additional base buffer solution.
Two test solutions were prepared as follows:
Copper Stability: 0.1 ml of the 100 μM solution of HSS was combined with 0.1 ml of the 10 μM CuSO4 solution in a 10 ml volumetric flask and additional base buffer solution added to make up to volume (to 10 ml). […]
The two test solutions and a sample of the HSS solution were then evaluated to assess what, if any, auto-oxidation of the HSS occurred in the presence of Cu^2+ and Fe^3+ ions. Stability or instability was evaluated by monitoring the absorbance at 319 nm for HSS at room temperature using a Shimadzu spectrophotometer.

[5] = Photostability of sunscreen formulation under sun simulator
Experimental: as §1
Three samples of this were taken for photostability testing according to the method of Example 6 above. The first sample, the Control, was not modified whereas the two remaining samples were modified by incorporating therein 2% of the compound of Example 1, HSS, and 4% octocrylene, respectively. The three formulations were prepared by first preparing each of Phase A1 and A2 and then dispersing Phase A2 in Phase A1 with agitation and heating to 75 C. Phase B was prepared and heated to 75° C. Phase B is then combined with the Phase A mixture with continuous stirring. The combination was subsequently homogenized for 2-3 minutes, and the batch cooled to 45° C. Phases C and were separately prepared and then mixed with the cooled batch until uniform.
As with Example 6, each was exposed to irradiation for various durations and the photostability tested. As evidenced from the results shown in Table 7, the stabilizer compound of the present invention performed markedly better than that of the conventional photostabilizer in the formulated product.

[6] = Photostabilization of water-soluble dyes under solar simulated light; details: 0.05% stabilizer, FD&C Yellow No 5 or Red No 40, solar simulated light ~40 hours
Experimental: The stabilizer compound Synoxyl™ HSS according to Example 1 was added to the two dye compositions of Table 9, one containing Yellow No 5 and the other Red No 40, in order to evaluate its ability to reduce the extent of color fading resulting from their exposure to solar simulated light. In both formulations without the Synoxyl™ HSS, visible and marked color fading was noted following just 2 hours of light exposure.

[7] = Stabilization of colored shampoo under fluorescent light (Delta E); details: 0.4 g HSS in 120 g shampoo, ambient temperature, 4 weeks
Experimental: The stabilizer compound according to Example 1, Synoxyl™ HSS, was added to a commercial shampoo formulation in order to evaluate its ability to reduce the amount of dye fading following exposure to fluorescent lighting. The sample was prepared by dissolving 0.4 g of HSS in 5 ml of ethanol and then adding the solution to 120 g of Suave® Natural Fresh Mountain Strawberry Shampoo with agitation and agitated for 15 minutes. A sample of the unmodified shampoo and the modified shampoo are then placed into 20 ml glass scintillation vials. Both sets of vials were weathered under fluorescent light aging at ambient temperature for 4 weeks. The L*a*b coordinates before and after exposure are measured using X-Rite 938 Spectro-densitometer. Color change is expressed as Delta E (ΔE) which is calculated by the formula: ΔE=[(ΔL*)^2+(Δa*)^2+(Δb*)^2]^1/2
Following the 4 week exposure the change in color, Delta E, was 21.6 for the unmodified shampoo and 12.3 for the modified shampoo.

[8] = cited from earlier work
[9] = 4% stabilizer in Test Solution (3% Avobenzone), UV dose 0 Joules/cm^2
[10] = 4% stabilizer in Test Solution (3% Avobenzone), UV dose 20 Joules/cm^2
[11] = 4% stabilizer in Test Solution (3% Avobenzone), UV dose 40 Joules/cm^2
[12] = 4% stabilizer in Test Solution (3% Avobenzone), UV dose 60 Joules/cm^2
[13] = 4% stabilizer in Test Solution (3% Avobenzone), UV dose 80 Joules/cm^2
[14] = 4% stabilizer in Test Solution (3% Avobenzone), UV dose 100 Joules/cm^2
[15] = 2% stabilizer in Test Solution (3% Avobenzone), UV dose 0 Joules/cm^2
[16] = 2% stabilizer in Test Solution (3% Avobenzone), UV dose 20 Joules/cm^2
[17] = 2% stabilizer in Test Solution (3% Avobenzone), UV dose 40 Joules/cm^2
[18] = 2% stabilizer in Test Solution (3% Avobenzone), UV dose 60 Joules/cm^2
[19] = 2% stabilizer in Test Solution (3% Avobenzone), UV dose 80 Joules/cm^2
[20] = 2% stabilizer in Test Solution (3% Avobenzone), UV dose 100 Joules/cm^2

COc1ccc(C=C(C(C)=O)C(C)=O)cc1 [Compound 3, 3-(4-methoxybenzylidene)-2,4-pentanedione]
melting point: 82 to 84 °C | % remaining [1, 9]: 100% | % remaining [1, 10]: 96% | % remaining [1, 11]: 90% | % remaining [1, 12]: 80% | % remaining [1, 13]: 73% | % remaining [1, 14]: 68%

COc1ccc(/C=C/C(C)=O)cc1OC [Dehydrozingerone methyl ether, Dehydrozingerone methylether]
% remaining [1, 15]: 100% | % remaining [1, 16]: 59% | % remaining [1, 17]: 26% | stabilization of photosensitive compounds ([1]; summary statement): fails to stabilize photosensitive compounds

Cc1ccc(C(C)C)cc2c(C)ccc1-2 [Guaiazulene]
lost due to degradation [2]: ~90%

COc1cc(C=C(C(C)=O)C(C)=O)cc(OC)c1OC [HSS, 3-(3,4,5-trimethoxybenzylidene)-2,4-pentanedione]
hydrolytic stability ([3]; pH 7, 8, and 9 at 40° C. and at 60° C. for at least 8 hrs): stable | GC purity (Area %) ([3]; pH 7, 40° C., 4 h): 98.9 Area % | GC purity (Area %) ([3]; pH 7, 40° C., 8 h): 99.1 Area % | GC purity (Area %) ([3]; pH 7, 60° C., 4 h): 98.6 Area % | GC purity (Area %) ([3]; pH 7, 60° C., 8 h): 99.0 Area % | GC purity (Area %) ([3]; pH 7, RT (~27° C.), 4 h): 98.8 Area % | GC purity (Area %) ([3]; pH 7, RT (~27° C.), 8 h): 99.0 Area % | GC purity (Area %) ([3]; pH 8, 40° C., 4 h): 98.9 Area % | GC purity (Area %) ([3]; pH 8, 40° C., 8 h): 99.1 Area % | GC purity (Area %) ([3]; pH 8, 60° C., 4 h): 99.2 Area % | GC purity (Area %) ([3]; pH 8, 60° C., 8 h): 99.0 Area % | GC purity (Area %) ([3]; pH 8, RT (~27° C.), 4 h): 98.7 Area % | GC purity (Area %) ([3]; pH 8, RT (~27° C.), 8 h): 99.2 Area % | GC purity (Area %) ([3]; pH 9, 40° C., 4 h): 99.0 Area % | GC purity (Area %) ([3]; pH 9, 40° C., 8 h): 98.9 Area % | GC purity (Area %) ([3]; pH 9, 60° C., 4 h): 99.1 Area % | GC purity (Area %) ([3]; pH 9, 60° C., 8 h): 98.8 Area % | GC purity (Area %) ([3]; pH 9, RT (~27° C.), 4 h): 98.8 Area % | GC purity (Area %) ([3]; pH 9, RT (~27° C.), 8 h): 98.8 Area % | stability (auto-oxidation) in the presence of iron and copper ions [4]: stable irrespective of the presence of iron and copper ions | photostability of sunscreen formulation (% remaining) ([5]; 2% stabilizer in sunscreen with 2% butyl methoxydibenzoylmethane, UV dose 0 Joules/cm^2): 100% | photostability of sunscreen formulation (% remaining) ([5]; 2% stabilizer in sunscreen with 2% butyl methoxydibenzoylmethane, UV dose 20 Joules/cm^2): 96% | photostability of sunscreen formulation (% remaining) ([5]; 2% stabilizer in sunscreen with 2% butyl methoxydibenzoylmethane, UV dose 40 Joules/cm^2): 92% | photostability of sunscreen formulation (% remaining) ([5]; 2% stabilizer in sunscreen with 2% butyl methoxydibenzoylmethane, UV dose 60 Joules/cm^2): 88% | % remaining [1, 15]: 100% | % remaining [1, 16]: 96% | % remaining [1, 17]: 90% | % remaining [1, 18]: 84% | % remaining [1, 19]: 77% | % remaining [1, 20]: 70% | % remaining [1, 9]: 100% | % remaining [1, 10]: 96% | % remaining [1, 11]: 90% | % remaining [1, 12]: 84% | % remaining [1, 13]: 80% | % remaining [1, 14]: 76% | color fading of dye formulation [6]: failed to manifest color fading | change in color, Delta E [7]: 12.3

CCCCC(CC)COC(=O)C(C#N)=C(c1ccccc1)c1ccccc1 (stereo not drawn) [Octocrylene]
photostability of sunscreen formulation (% remaining) ([5]; 4% stabilizer in sunscreen with 2% butyl methoxydibenzoylmethane, UV dose 0 Joules/cm^2): 100% | photostability of sunscreen formulation (% remaining) ([5]; 4% stabilizer in sunscreen with 2% butyl methoxydibenzoylmethane, UV dose 20 Joules/cm^2): 94% | photostability of sunscreen formulation (% remaining) ([5]; 4% stabilizer in sunscreen with 2% butyl methoxydibenzoylmethane, UV dose 40 Joules/cm^2): 89% | photostability of sunscreen formulation (% remaining) ([5]; 4% stabilizer in sunscreen with 2% butyl methoxydibenzoylmethane, UV dose 60 Joules/cm^2): 82% | % remaining [1, 15]: 100% | % remaining [1, 16]: 92% | % remaining [1, 17]: 80% | % remaining [1, 18]: 68% | % remaining [1, 19]: 64% | % remaining [1, 20]: 58% | % remaining [1, 9]: 100% | % remaining [1, 10]: 94% | % remaining [1, 11]: 83% | % remaining [1, 12]: 73% | % remaining [1, 13]: 67% | % remaining [1, 14]: 60%

CC1=C(/C=C/C(C)=C/C=C/C(C)=C\C(=O)O)C(C)(C)CCC1 [isotretinoin, 13-cis-retinoic acid]
solubility in diethylhexyl diester of 2,6-naphthalene-dicarboxylic acid [8]: approximately 6.7 mg/ml

CC1=C(/C=C/C(C)=C/C=C/C(C)=C/C(=O)O)C(C)(C)CCC1 [tretinoin, all-trans-retinoic acid]
solubility in diethylhexyl diester of 2,6-naphthalene-dicarboxylic acid [8]: approximately 5.6 mg/ml | solubility in water ([8]; water): practically insoluble
